From patent US9139592B2, “Modulators of Nrf2 and uses thereof” (TRT PHARMA INC., priority 2010, dated 2015)
Entries after “also recorded” stand apart in the source; their conditions may differ.

Experiments:
Assay type in all cases: cell-based
MCF-7 cells [1] = assay: MCF-7 cell viability (MTT, 72 h); conditions: dose range 10 nM to 10 μM
Procedure: FIG. 9 illustrates MCF-7 cell survival curves for BM10, BM31, BM40 and SFN. MCF-7 cells were treated with test compounds at designated concentrations for 72 hours. Viable cells were evaluated by MTT assays. Experiments were performed in triplicate and repeated twice.
(§1) Cells are seeded at 4×10^3 per well using 96-well plate, grown overnight before being treated with test compounds for 72 h. Viable cells are measured by MTT assays. To evaluate the ability of test compounds in protecting MCF-7 cells from the damage of B[a]P, MCF-7 cells are seeded at 2×10^3 per well using 96-well plate, grown overnight before being treated with test compounds at designed concentration for 48 h. Next, cells are treated with 160 nM B[a]P in the presence of test compound for another 72 h. The viable cells are measured using MTT assays. Experiments are performed in triplicate and repeated twice.

[2] = system: Nrf2 nuclear translocation in HepG2 cells; assay: Western blot of nuclear Nrf2 (Nrf2 nuclear translocation) in HepG2 cells; conditions: 24 h
Procedure: (§2) Cells are treated with test compounds at designated concentrations and are harvested at 24 h. Sixty microgram of cell-lysate protein and 35 ug of nuclear extract are loaded into each lane, and electrophoresed through a 4-20% gradient SDS-PAGE gel (Bio-Rad, Mississauga, ON, Canada), and transferred onto a nitrocellulose membrane. The membrane is incubated with primary antibody and subsequently incubated with HRP-conjugated secondary antibody. Finally, ECL detection is carried out, and the results were recorded on X-ray film by autophotography.
(§3) The 23 top-score molecules from the first round of virtual screening are initially tested in the cell-based ARE-driven luciferase assay. Specifically, HepG2 cell line are transfected with ARE-driven pGL3 luciferase vector and then exposed to individual test compounds at 10, 50 μM. Classical Nrf2 inducers EQ and SFN were used as the positive controls. […] To examine the effect of these active compounds on Nrf2 nuclear translocation, Western blot analysis is used to measure the nuclear level of Nrf2 after cells are exposed to these compounds.

[3] = system: γ-glutamylcysteine synthetase (GCS), a Nrf2-regulated protein, in HepG2 cells; assay: Western blot of γ-glutamylcysteine synthetase (GCS) in HepG2 whole cell extracts; conditions: 24 h; for induction of GCS: whole cell protein extracts
Procedure: FIG. 3B illustrates endogenous γ-glutamylcysteine synthetase (GCS), a Nrf2-regulated protein, in whole cell protein extracts, detected by Western blotting. HepG2 cells were treated with EQ, SFN, DMSO, BM10, BM31 and BM40 at designated concentrations for 24 h.
as §2
Nrf2 is a master transcription factor regulating multiple ARE-regulated antioxidant and detoxifying enzymes, such as GCS, glutathione S-transferase (GST), NAD(P)H quinone oxidoreductase-1 (NQO1), and UDP glucuronosyltransferase (UGT), etc. The effects of our lead compounds on GCS are examined.

[4] = system: ARE-driven luciferase activity (Nrf2) in HepG2 cells; assay: ARE-driven luciferase assay in HepG2 cells; conditions: test compounds at 10, 50 μM, 24 h
Procedure: (§4) One representative ARE (A2-ARE) from GSTA2 is used in this work, and A2-ARE are cloned into the KpnI and MluI sites of pGL3-promoter vector, which contains a heterologous SV40 promoter and a firefly luciferase reporter gene. Cells are seeded at 1×10^5 per well using 24-well plate, grown overnight before being transfected transfected with pGL3 and other designated constructs using LipofectAMINE (Invitrogen) for 5 h. The plasmid pRL, containing a renilla reniformis luciferase reporter gene, is cotransfected as internal control to correct transfection efficiency. After transfection, cells are treated with test compounds at designated concentrations for 24 h prior to harvesting. The cells are then washed twice with phosphate-buffered saline and harvested in 100 uL of 1× passive lysis buffer (Promega, Madison, Wis., USA). The luciferase activities are analyzed in 20-uL cell extracts with the Dual luciferase Assay™ kit (Promega) on a Lumat LB 9507 luminometer (Berthold Technologies, Oak Ridge, Tenn., USA). The related luciferase activities are expressed as a ratio of the pGL3 reporter activity to that of the control plasmid pRL. The fold of induction is expressed as ratio of induction from the treated cells versus the untreated. Values represent measurements from three independent experiments performed in triplicate and are presented as the mean±SEM.
as §3

Nrf2/Keap1 complex = target: T1, Nrf2/Keap1 complex (Homo sapiens, UniProt Q14145); assay: Co-IP of Keap1 and Nrf2 in co-transfected 293T cells; conditions: 293T cells co-transfected with Nrf2 and Keap1; 24 h; BM31 50 μM, SFN 5 μM
T1 construct: expressed in transfected cells; host or cells: 293T
T1 sequence (Q14145 whole entry): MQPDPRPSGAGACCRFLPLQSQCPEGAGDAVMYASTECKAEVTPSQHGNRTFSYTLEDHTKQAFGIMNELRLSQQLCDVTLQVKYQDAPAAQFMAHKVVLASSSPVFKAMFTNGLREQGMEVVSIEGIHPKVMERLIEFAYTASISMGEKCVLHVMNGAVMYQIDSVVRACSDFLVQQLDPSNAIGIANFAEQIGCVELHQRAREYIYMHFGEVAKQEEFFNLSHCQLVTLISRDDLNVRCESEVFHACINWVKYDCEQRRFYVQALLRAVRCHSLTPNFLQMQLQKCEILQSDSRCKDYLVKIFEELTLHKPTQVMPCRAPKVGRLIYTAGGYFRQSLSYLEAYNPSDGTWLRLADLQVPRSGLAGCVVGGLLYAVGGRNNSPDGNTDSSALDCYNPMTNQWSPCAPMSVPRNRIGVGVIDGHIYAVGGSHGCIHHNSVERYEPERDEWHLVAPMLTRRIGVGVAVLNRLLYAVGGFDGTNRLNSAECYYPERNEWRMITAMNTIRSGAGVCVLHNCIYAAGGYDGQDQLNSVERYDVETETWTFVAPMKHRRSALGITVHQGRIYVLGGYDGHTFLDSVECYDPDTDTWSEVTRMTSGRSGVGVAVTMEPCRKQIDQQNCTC
T1 sequence (Q16236 whole entry partner): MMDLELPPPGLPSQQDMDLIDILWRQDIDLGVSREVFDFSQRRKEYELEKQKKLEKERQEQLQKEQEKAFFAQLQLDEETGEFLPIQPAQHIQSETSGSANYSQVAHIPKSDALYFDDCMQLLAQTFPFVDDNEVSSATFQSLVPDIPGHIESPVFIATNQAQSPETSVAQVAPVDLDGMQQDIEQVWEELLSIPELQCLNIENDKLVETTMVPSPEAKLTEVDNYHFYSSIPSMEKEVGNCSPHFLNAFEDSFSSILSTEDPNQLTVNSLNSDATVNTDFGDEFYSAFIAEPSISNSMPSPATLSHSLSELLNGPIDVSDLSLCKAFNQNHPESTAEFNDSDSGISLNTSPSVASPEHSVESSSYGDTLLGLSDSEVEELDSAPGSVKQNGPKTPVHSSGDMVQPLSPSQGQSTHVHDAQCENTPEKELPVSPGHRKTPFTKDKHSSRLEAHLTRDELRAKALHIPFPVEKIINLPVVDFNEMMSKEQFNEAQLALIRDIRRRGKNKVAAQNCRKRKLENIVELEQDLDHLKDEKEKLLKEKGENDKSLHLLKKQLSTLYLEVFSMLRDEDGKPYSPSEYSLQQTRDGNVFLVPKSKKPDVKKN
Procedure: FIG. 5 illustrates 293T cell lysates immunoprecipitated with Keap1 antibody and the eluted proteins were immunoblotted with Nrf2 antibody. Lane 1: Nrf2 transfection; Lanes 2, 3, 4: Nrf2 and Keap1 co-transfection. Lanes 2, 3, 4: treated with DMSO, BM31 (50 μM) and SFN (5 μM), respectively.
To study the effect of BM31 on the interaction of Keap1 and Nrf2, Co-IP experiments are performed. 293T cells are successfully transfected and achieved high Nrf2 expression in this cell line. In the co-IP experiments, 293T cells are co-transfected with Nrf2 and Keap1 expression vectors. After transfection, the cells are treated with SFN and BM31 for 24 h before harvesting. The cell lysates are used for IP with Keap1 antibody. The eluted proteins are immunoblotted with Nrf2 antibody. […] For example, arsenic induces the Nrf2-dependent response through markedly enhancing the interaction between Keap1 and Cul3, subunits of the E3 ubiquitin ligase for Nrf2, which leads to impaired dynamic assembly/disassembly of the E3 ubiquitin ligase and thus decreases its ligase activity, resulting in inhibition of Nrf2 ubiquitination and degradation. Our further work will determine whether BM31 induces Nrf2 via a mechanism similar to that of arsenic.

[5] = system: Keap1 mutants (C257S, C273S, C288S, C297S) / ARE-driven luciferase in 293T cells; assay: ARE-driven luciferase assay in 293T cells co-transfected with Nrf2 and Keap1 IVR cysteine mutants; conditions: for effect of Keap1 C273S and C288S mutations on activation of ARE-driven luciferase activities / effect of Keap1 C297S mutant on potency in activating ARE-driven luciferase activities: 293T cells
Procedure: as §4
Keap1 is a multi-domain protein, in which the IVR domain contains 4 cysteine residues, C257, C273, C288 and C297. The known Nrf2 inducers may interact with these cysteine residues in the IVR domain, resulting in conformational change of Keap1 and ultimately activating Nrf2. To investigate the role of these active cysteine residues in the Nrf2-inducing activity of BM31, 4 Keap1 mutants (C257S, C273S, C288S and C297S) are tested. BM31 is selected for this and further investigation because the dose-response is consistent for its capability in inducing Nrf2 nuclear translocation and induction of enzyme GCS (FIG. 3). Co-transfection experiments to investigate the effects of Keap1 IVR cysteine mutants on ARE-driven luciferase activities are performed. Specifically, 293T cells are co-transfected with ARE-driven pGL3 luciferase report vector, Keap1 vector with and without the Nrf2 expression vector (FIG. 4). After transfection, the cells are exposed to BM31 at 50 μM for 16 h before harvest. The cell lysates are used for measurement of ARE-driven luciferase activities. […] Our conclusion is that BM31 targets the binding site around C297 in the IVR domain of Keap1, and mutation of residue C297 partially abolishes the Nrf2-inducing effect of BM31.

MCF-7 cells [6] = assay: Protection of MCF-7 cells from cytotoxic damage of B[a]P (MTT); conditions: low dose range 50 nM to 200 nM, 48 h pre-incubation, then 160 nM B[a]P + compound 72 h
Procedure: as §1
To test the capability of BM compounds in protecting against the cytotoxic effect of B[a]P, cellular assays using MCF-7 cells are performed. Incubation of MCF-7 cells with various concentrations of BM31 for 48 hours is followed by incubation with 160 nM B[a]P+the BM31 for 72 hours. MTT assays are performed to evaluate the protection effect of the BM31. DMSO without B[a]P was used as a control.

SMILES	cytotoxic effects on proliferation of MCF-7 cells (MCF-7 cells [1])	induction of Nrf2 nuclear translocation (nuclear Nrf2 by Western blot) [2]	potency in elevating nuclear Nrf2 compared with SFN [2]	induction of GCS [3]	induction of ARE-driven luciferase activities [4]	further results
O=C(c1ccccc1)C1COc2ccccc2C1O (stereo not shown) [BM40]	do not have cytotoxic effects	potent Nrf2 inducers; also recorded: triggered Nrf2 nuclear translocation	comparable to that of SFN	induced expression		potency in inducing GCS compared with SFN and EQ [3]: comparable to that of SFN and EQ
O=C1C[C@@H](c2ccccc2)Oc2cc(O)cc(O)c21 [BM5]		triggered Nrf2 nuclear translocation				
Ic1ncnc2c1ncn2[C@H]1CCCS1 [BM10]	do not have cytotoxic effects	most potent; also recorded: triggered Nrf2 nuclear translocation	comparable to that of SFN	modest potency; also recorded: induced expression		
COc1ccc2nc3cc(Cl)ccc3c(C#N)c2c1 [BM4]		modest activity; also recorded: triggered Nrf2 nuclear translocation			potently induce	
Nc1nc(N)c2ncn(Cc3ccccc3)c2n1 [BM6]		modest activity; also recorded: triggered Nrf2 nuclear translocation			potently induce	
Cc1n[nH]c2c(Cc3ccco3)nnc(O)c12 [BM18]		modest activity; also recorded: triggered Nrf2 nuclear translocation			potently induce	
Clc1ncnc2c1ncn2[C@H]1CCCS1 [BM31]	do not have cytotoxic effects	potent Nrf2 inducers; also recorded: triggered Nrf2 nuclear translocation	comparable to that of SFN	induced expression		effect on Nrf2/Keap1 complex (Keap1 IP, Nrf2 immunoblot) (Nrf2/Keap1 complex): increases the Nrf2/Keap1 complex; effect of Keap1 C273S and C288S mutations on activation of ARE-driven luciferase activities [5]: do not completely abolish; effect of Keap1 C297S mutant on potency in activating ARE-driven luciferase activities [5]: limits the potency; also recorded: abolished the Nrf2 induction activity; induction of ARE-driven luciferase activities with C257S, C273S or C288S mutant Keap1 ([5]; 293T cells co-transfected with ARE-pGL3, Nrf2 and mutant Keap1, BM31 50 μM, 16 h): potently induces; protection of MCF-7 cells from cytotoxic damage of B[a]P (MCF-7 cells [6]): significant protection; also recorded: provides protections; potency in inducing GCS compared with SFN and EQ [3]: comparable to that of SFN and EQ
Nc1nc(S)c2ncn(C3CCCCC3)c2n1 [BM9]		modest activity; also recorded: triggered Nrf2 nuclear translocation				
Cc1nnc(Cc2ccco2)c2[nH]nc(C)c12 [BM19]		triggered Nrf2 nuclear translocation				
C[S+]([O-])CCCCN=C=S (stereo not shown) [SFN, sulforaphane, reference compound]						effect on Nrf2/Keap1 complex (Keap1 IP, Nrf2 immunoblot) (Nrf2/Keap1 complex): increases the Nrf2/Keap1 complex; effect of Keap1 C273S and C288S mutations on activation of ARE-driven luciferase activities [5]: do not completely abolish; effect of Keap1 C297S mutant on potency in activating ARE-driven luciferase activities [5]: did not affect the potency
